Reference: patent publication US7790738B2, “Methods of treating and preventing AIDS using of COX-2 inhibitors” (Lauras AS, priority 2000, dated 2010)
Where two headings read alike, the source gives them in different places.

What was measured:
[1] = target: T1, COX-2 (Mus musculus, UniProt Q05769); conditions: cited from earlier work; for IC50: read-out: COX-2 IC50
T1 construct: endogenous in cells
T1 sequence (Q05769 18-604): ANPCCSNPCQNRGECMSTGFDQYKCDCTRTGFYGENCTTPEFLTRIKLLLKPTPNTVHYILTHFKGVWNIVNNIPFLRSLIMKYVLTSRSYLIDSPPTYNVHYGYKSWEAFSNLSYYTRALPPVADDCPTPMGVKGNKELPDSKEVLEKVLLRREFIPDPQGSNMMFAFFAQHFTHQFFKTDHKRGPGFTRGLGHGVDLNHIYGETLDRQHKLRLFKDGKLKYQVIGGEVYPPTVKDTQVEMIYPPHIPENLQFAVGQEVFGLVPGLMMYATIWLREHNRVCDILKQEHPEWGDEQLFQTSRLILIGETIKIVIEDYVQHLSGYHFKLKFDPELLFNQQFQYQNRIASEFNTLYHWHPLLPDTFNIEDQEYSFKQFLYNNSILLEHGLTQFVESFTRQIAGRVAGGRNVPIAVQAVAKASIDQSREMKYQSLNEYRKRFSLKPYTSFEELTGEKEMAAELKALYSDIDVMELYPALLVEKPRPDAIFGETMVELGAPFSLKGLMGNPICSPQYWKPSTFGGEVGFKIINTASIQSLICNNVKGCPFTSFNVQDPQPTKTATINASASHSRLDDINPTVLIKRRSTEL

[2] = target: T2, COX-1 (Bos taurus, UniProt O62664)
T2 construct: IC50 values for NSAID's in intact cell on COX-1; endogenous in cells; host or cells: bovine endothelial cells
T2 sequence (O62664 25-600): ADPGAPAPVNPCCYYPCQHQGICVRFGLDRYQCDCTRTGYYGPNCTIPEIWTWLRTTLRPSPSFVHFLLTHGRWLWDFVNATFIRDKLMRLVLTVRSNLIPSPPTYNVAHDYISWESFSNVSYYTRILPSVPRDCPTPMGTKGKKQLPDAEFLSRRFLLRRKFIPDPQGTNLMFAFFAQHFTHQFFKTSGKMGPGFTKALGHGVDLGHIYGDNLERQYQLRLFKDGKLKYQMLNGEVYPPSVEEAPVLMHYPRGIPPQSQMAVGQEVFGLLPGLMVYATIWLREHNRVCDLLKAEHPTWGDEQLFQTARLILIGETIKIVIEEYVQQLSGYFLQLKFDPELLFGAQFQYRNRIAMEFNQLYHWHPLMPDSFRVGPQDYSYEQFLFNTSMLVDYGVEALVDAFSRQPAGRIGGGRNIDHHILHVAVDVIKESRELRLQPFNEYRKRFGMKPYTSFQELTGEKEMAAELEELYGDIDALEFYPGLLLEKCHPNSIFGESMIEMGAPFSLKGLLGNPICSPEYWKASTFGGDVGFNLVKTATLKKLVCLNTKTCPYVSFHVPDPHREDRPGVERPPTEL

[3] = target: T3, COX-2 (Homo sapiens, UniProt P35354); conditions: read-out: COX-2 IC50, cited from earlier work
T3 sequence (P35354 18-604): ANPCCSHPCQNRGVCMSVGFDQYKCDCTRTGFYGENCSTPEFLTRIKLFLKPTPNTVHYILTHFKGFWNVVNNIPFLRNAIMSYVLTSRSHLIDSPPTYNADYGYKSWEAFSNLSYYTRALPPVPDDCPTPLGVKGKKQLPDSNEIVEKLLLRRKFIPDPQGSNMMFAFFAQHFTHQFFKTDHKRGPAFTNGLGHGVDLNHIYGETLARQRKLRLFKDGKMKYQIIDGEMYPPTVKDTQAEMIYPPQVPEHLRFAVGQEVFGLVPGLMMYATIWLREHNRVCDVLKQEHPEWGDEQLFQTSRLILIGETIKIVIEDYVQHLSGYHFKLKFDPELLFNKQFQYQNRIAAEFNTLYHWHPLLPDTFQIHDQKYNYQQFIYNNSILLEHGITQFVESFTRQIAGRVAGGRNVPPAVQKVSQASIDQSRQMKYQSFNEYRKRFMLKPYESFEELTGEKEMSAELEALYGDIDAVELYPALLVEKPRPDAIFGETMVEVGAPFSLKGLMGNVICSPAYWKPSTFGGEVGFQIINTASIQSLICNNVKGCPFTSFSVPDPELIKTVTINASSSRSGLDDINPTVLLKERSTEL

[4] = target: COX-1 (Cavia porcellus, UniProt H0V9X9); conditions: read-out: COX-1 IC50; guinea pig macrophage model; Engelhart et al. 1995; cited from earlier work
[5] = tested on: CD3+ T cells from MAIDS and control mice; assay: TCR/CD3 stimulated proliferation of isolated T cells, [3H]-thymidine incorporation; assay type: cell-based, mouse; conditions: median, read-out: Inhibition of proliferation by 8-CPT-cAMP (IC50)
Procedure: TCR/CD3 stimulated T cell proliferation was assessed with isolated T cells from MAIDS mice (A) and uninfected control mice (B). The effect of increasing concentrations of cAMP agonist (8-CPT-cAMP) on TCR/CD3 stimulated proliferation of CD3+ T cells isolated from MAIDS (open circles, dotted line) and control mice (filled circles and solid line) was examined separately in the same experiments (C). Mean values of triplicate determinations±SD are shown. See Table 4 for summarised data (n=11). Note: Scaling differs in A and B, whereas in C the TCR/CD3 induced proliferation in the absence of cAMP agonist is normalized to 100% for both MAIDS and control T cells;
Activation was achieved by subsequent addition of monodisperse magnetic beads coated with sheep anti-mouse IgG (Dynal, cat. no. 110.02) at a cell:bead ratio of 1:1 followed by addition of anti-CD3 (clone 2C11) at a final dilution of 4 μg/ml for the experiments shown. […] 8-CPT-cAMP was from Sigma (St. Louis, Mo.) and Sp- and Rp-8-Br-cAMPS were from BioLog Life Science Company (Bremen, Germany) and were all dissolved to concentrations of 4 to 10 mM in PBS and concentrations calculated using the extinction coefficients given by the manufacturer.

[6] = read-out: COX-1 IC50; intact cell, bovine endothelial cells; Taketo 1998; cited from earlier work
[7] = intact cell, bovine endothelial cells; Taketo 1998; read-out: COX-1 IC50; cited from earlier work
[8] = intact cell, stimulated macrophages, Taketo 1998

Chain of COX-1 (Cavia porcellus, UniProt H0V9X9) (H0V9X9 entry or part of it): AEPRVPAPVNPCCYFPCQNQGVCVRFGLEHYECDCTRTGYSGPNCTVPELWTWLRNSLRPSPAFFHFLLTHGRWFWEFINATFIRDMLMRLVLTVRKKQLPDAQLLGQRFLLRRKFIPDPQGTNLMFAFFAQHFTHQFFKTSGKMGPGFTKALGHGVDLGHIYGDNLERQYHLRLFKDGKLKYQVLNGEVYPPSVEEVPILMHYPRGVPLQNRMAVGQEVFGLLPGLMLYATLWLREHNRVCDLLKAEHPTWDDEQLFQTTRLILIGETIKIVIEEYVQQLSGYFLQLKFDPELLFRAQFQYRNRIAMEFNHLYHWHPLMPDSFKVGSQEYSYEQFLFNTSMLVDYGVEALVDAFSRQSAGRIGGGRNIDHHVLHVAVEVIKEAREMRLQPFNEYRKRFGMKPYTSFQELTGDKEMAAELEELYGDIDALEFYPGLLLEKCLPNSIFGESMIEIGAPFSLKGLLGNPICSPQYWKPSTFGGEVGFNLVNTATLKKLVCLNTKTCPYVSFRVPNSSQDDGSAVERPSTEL

**Q.** Which IC50 [1] does the source give for `COc1ccc2cc([C@H](C)C(=O)O)ccc2c1` [Naproxen] here?
**A.** 1300 nM

**Q.** Which “COX-2 selectivity COX-1/COX-2” value [1] does the source give for `CC(C(=O)O)c1ccc2c(c1)[nH]c1ccc(Cl)cc12` (centres unmarked) [Carprofen] here?
**A.** 1

**Q.** And the IC50 [1]?
**A.** 3000 nM

**Q.** And the IC50 [2, 6]?
**A.** 3000 nM

**Q.** Which IC50 [2, 7] does the source give for `CC(C(=O)O)c1ccc(-c2ccccc2)c(F)c1` (centres unmarked) [Flubiprofen] here?
**A.** 20 nM

**Q.** Which IC50 ([3]; recombinant human PGH synthesis, Laneuvill et al. 1994) does the source give for `CCCCC1C(=O)N(c2ccccc2)N(c2ccccc2)C1=O` [Phenylbutazone] here?
**A.** > 100000 nM

**Q.** What does the source list for `Cc1c(Cl)cccc1Nc1ccccc1C(=O)O` [Tolfenamic acid]?
**A.** IC50 [1, 8]: 5 nM; COX-2 selectivity COX-1/COX-2 ([1]; ratio of IC50, intact cells): 0.06; IC50 [2, 7]: 0.3 nM

**Q.** For `CN1C(C(=O)Nc2ccccn2)=C(O)c2ccccc2S1(=O)=O` [Piroxicam], which IC50 [4] is on record?
**A.** 5.27 nM

**Q.** Which results are given for `O=C([O-])c1ccccc1O.[Na+]` [Sodium salicylate]?
**A.** IC50 [1, 8]: 100000 nM; COX-2 selectivity COX-1/COX-2 ([1]; ratio of IC50, intact cells): 0.35; IC50 [2, 7]: 35000 nM

**Q.** For `CC(=O)Nc1ccc(O)cc1` [Acetaminophen], which IC50 [2, 7] is on record?
**A.** 2700 nM

**Q.** For `O=C(O)Cc1ccccc1Nc1c(Cl)cccc1Cl` [Diclofenac], which IC50 [4] is on record?
**A.** 0.855 nM

**Q.** What does the source list for `CN1OCC/C(=C\c2cc(C(C)(C)C)c(O)c(C(C)(C)C)c2)C1=O` [BF 389]?
**A.** IC50 [1, 8]: 30 nM; COX-2 selectivity COX-1/COX-2 ([1]; ratio of IC50, intact cells): 5; IC50 [2, 7]: 150 nM

**Q.** For `NC1=NN(c2cccc(C(F)(F)F)c2)CC1` [BW 755C], which IC50 [2, 6] is on record?
**A.** 650 nM

**Q.** What does the source list for `Nc1ncnc2c1nc(Sc1ccc(Cl)cc1)n2[C@@H]1O[C@@H]2COP(=O)(O)O[C@H]2[C@H]1O` [8-CPT-cAMP]?
**A.** IC50 ([5]; MAIDS mice, n = 5): 220 nM; IC50 ([5]; control mice, n = 4): 400 nM

**Q.** Which IC50 [4] does the source give for `NC(=O)N1C(=O)/C(=C(\O)c2cccs2)c2cc(Cl)ccc21` [Teridep] here?
**A.** 393 nM

**Q.** Which IC50 [3] does the source give for `CCc1cccc2c3c([nH]c12)C(CC)(CC(=O)O)OCC3` (centres unmarked) [Etodolac] here?
**A.** 60000 nM
